In patent US20250244312A1, “EX VIVO COLONIC BIOPSY PLATFORM TO EVALUATE MULTI-OMIC SIGNATURES FOR SCREENING CANDIDATE THERAPEUTICS” (Athos Therapeutics, Inc., priority 2020, published 2025):
Peptide text beside a SMILES is read from it. l = locked nucleic acid (LNA); [5mC] = 5-methylcytosine; d = 2'-deoxy (DNA)

Columns and labels:
Type in all cases: cell-based, human
IL-1B = IL-1B level in supernatant of colonic explant culture (ELISA), ex vivo biopsy high throughput platform; conditions: 12 h; for IL-1B levels / effectiveness at reducing IL1B levels, compared with the other inhibitors: 10 uM; for IL-1B levels: supernatant of UC active disease colonic biopsy replicate, vs untreated control well; for effectiveness at reducing IL1B levels, compared with the other inhibitors: UC colonic explant
Method: (§1) Step 1: A biopsy was obtained from a macroscopically disease area of the inflammatory intestinal mucosa of an IBD patient. Samples can be from small or large intestine and the patient can be afflicted with, or suspected of having, UC or CD. The medium used to transport mucosal colonic biopsies from IBD patients was pre-cooled on ice, and comprised: Dulbecco's Modified Eagle Medium (DMEM) liquid (High Glucose), 4 mM L-alanyl-L-glutamine dipeptide, 1% penicillin/streptomycin and […] gentamicin. Tissue culture was initiated less than 1 hour after collection.
(§2) Step 2: Once in the laboratory, the biopsy was washed in Hank's Balanced Salt Solution buffer for a few minutes (e.g., 2-5 min) and cut with sterile scalpels to create biopsy pieces (approximately 2-5 um sections). Media comprising Dulbecco's Modified Eagle Medium (DMEM) liquid (High Glucose), 4 mM L-alanyl-L-glutamine dipeptide, 1% FBS, 1% non-essential amino acids, 1% Sodium Pyruvate, 1% penicillin/streptomycin, […] gentamicin and 5 ug/ml insulin-transferrin-selenium-X, was pre-warmed at 37° C. and added to the pieces of the biopsy. The average volume of media for each biopsy was 1.5 mL, which allows generation of 10 replicates in a 96 well plate (150 uL/well) or 60 replicates in a 384 well plate (25 uL/well). The plates then were cultured in a humidified chamber with 95% O2 and 5% CO2. The 96-and 384-well plates are two non-limiting embodiments of the platform assay disclosed herein, though additional embodiments of the high throughput platform disclosed herein can be used to predict drug responses by evaluating multi-omic signatures in other multi-well formats.
(§3) An embodiment of the ex vivo biopsy high throughput platform was used to assess the effects of G9A inhibitors BIX01294 (cat. No 3364, Tocris) and UNC0642 (cat. No 5132, Tocris), JMJD3 inhibitors GSK-J4 (cat. No 4594, Tocris) and JIB-04 (cat. No 4972, Tocris), and an EZH2 inhibitor UNC1999 (cat. No 4904, Tocris) (10 uM) on a multi-omic response, evaluating cytokine production levels and global chromatin H3K9me2 and H3K27me3 levels in UC active disease colonic explants.
(§4) Specifically, a UC active disease colonic biopsy was processed as described in Example 1 and separated into 6 replicates in a 96-well plate. One well was used as control and the rest were treated with each compound at the concentration of 10 uM. Twelve hours later, 50 uL of supernatant was collected to evaluate IL-1B (#KHC0011, ThermoFisher) and TNFA levels (#BMS223HS, ThermoFisher); meanwhile, the tissue pellet was also collected and processed to check H3K9me2 (#P-3032, Epigentek) and H3K27me3 (#P-3020,Epigentek) levels by ELISA assay.
(§5) The biopsy was processed as described in Example 1. Briefly, one well was used as control and treated with RNA-negative control (miR-NC, cat no. YI00199006, Qiagen) (1 uM), a second well was treated with the miR-24-A inhibitor (1 uM), and a third well was treated with miR-24-B inhibitor (1 uM). 50 uL of supernatant was collected to evaluate IL1B and TNFA levels and tissue pellet was collected and processed for RNA extraction (miRNeasy Kit, Qiagen). MicroRNA LNA miRNA PCR assays (Qiagen) were performed for miR-24-3p (cat.no YP00204260, Qiagen).

miR-24-3p = miR-24-3p expression in UC colonic explant culture (LNA miRNA PCR assay); conditions: 1 uM, 12 h, UC colonic explant tissue pellet
Method: as §1
as §2, with “The 96-and 384-well plates are two non-limiting embodiments of the platform assay disclosed herein, though additional embodiments of the high throughput platform disclosed herein can be used to predict drug responses by evaluating multi-omic signatures in other multi-well formats.” left out

TNFA = TNFA level in supernatant of colonic explant culture (ELISA), ex vivo biopsy high throughput platform; conditions: 12 h; for TNFA levels / effectiveness at reducing TNFA levels, compared with the other inhibitors: 10 uM; for TNFA levels: supernatant of UC active disease colonic biopsy replicate, vs untreated control well; for effectiveness at reducing TNFA levels, compared with the other inhibitors: UC colonic explant
Method: as §1, §2, §3, §4, §5

H3K9me2 = experiment: Global chromatin H3K9me2 level in colonic explant tissue pellet (ELISA); conditions: 10 uM, 12 h, tissue pellet of UC colonic explant
Method: as §1
as §2, with “The 96-and 384-well plates are two non-limiting embodiments of the platform assay disclosed herein, though additional embodiments of the high throughput platform disclosed herein can be used to predict drug responses by evaluating multi-omic signatures in other multi-well formats.” left out

H3K27me3 = experiment: Global chromatin H3K27me3 level in colonic explant tissue pellet (ELISA); conditions: 10 uM, 12 h, tissue pellet of UC colonic explant
Method: as §1
as §2, with “formats. […]” for “formats.”

IBD colonic explants = experiment: Cell viability of colonic explants (CellTiter-Blue assay)
Method: as §1
Step 3: Cell viability evaluation. To evaluate the effects of any drug using a colonic explant assay, the viability of the colonic explant in culture is examined. The experimental conditions related to the culture viability of the colonic explants were optimized by focusing on the media composition during the transfer of the biopsy from the patient biopsy collection site to the laboratory and the duration of culturing the explant.
CellTiter-Blue assay (Promega) was used to evaluate cell viability of the colonic explants. Briefly, the CellTiter-Blue reagent was added in the culture and the fluorescent signal was measured (560/590 nm) after 1 h of incubation in 37° C. […]

[1] = 1 uM, UC colonic explant supernatant, control miR-NC

## 5-CTG^mCTGAA^mCTGAG^mCCA-3 (antisense CTGCTGAACTGAGCCA; sugars from the 5' end l3 d6 l2 d3 l2, [5mC] at 4, 9, 14, all phosphorothioate, methylation of C not given here) [miR-24-A, antisense-miR-24-3p compound; phosphorothioate linkages bases 1-16, LNA at bases 1-3, 10-11, 15-16,5-methylcytosine at positions 4,9, 14]
IL-1B; [1]
  reducing IL1B levels, compared to miR-24-B inhibitor: more effective
miR-24-3p
  miR-24-3p expression levels, compared to miR-24-B inhibitor: more effectively suppressed
TNFA; [1]
  reducing TNFA levels, compared to miR-24-B inhibitor: more effective

## COc1cc2nc(N3CCCN(C)CC3)nc(NC3CCN(Cc4ccccc4)CC3)c2cc1OC [BIX01294]
IL-1B
  IL-1B levels: reduced
TNFA
  TNFA levels: reduced
H3K9me2
  H3K9me2 levels: reduced

## CCOC(=O)CCNc1cc(N2CCc3ccccc3CC2)nc(-c2ccccn2)n1 [GSK-J4]
H3K27me3
  H3K27me3 levels: increased
IL-1B
  effectiveness at reducing IL1B levels, compared with the other inhibitors: more effective than BIX01294 and JIB-04
  IL-1B levels: reduced
TNFA
  effectiveness at reducing TNFA levels, compared with the other inhibitors: more effective than BIX01294 and JIB-04
  TNFA levels: reduced

## Clc1ccc(N/N=C(\c2ccccc2)c2ccccn2)nc1 [JIB-04]
H3K27me3
  H3K27me3 levels: increased
IL-1B
  IL-1B levels: reduced
TNFA
  TNFA levels: reduced

## C[C@H](N)C(=O)N[C@@H](CCC(N)=O)C(=O)O [L-alanyl-L-glutamine dipeptide] (H-Ala-Gln-OH)
IBD colonic explants; added to the transfer media (DMEM, penicillin/streptomycin, gentamicin)
  cell viability of colonic explants: substantial increase in cell viability
IBD colonic explants; in transfer media
  concentration identified to have the highest cell viability: 4 mM

## COc1cc2c(NC3CCN(C(C)C)CC3)nc(N3CCC(F)(F)CC3)nc2cc1OCCCN1CCCC1 [UNC0642]
IL-1B
  effectiveness at reducing IL1B levels, compared with the other inhibitors: more effective than BIX01294 and JIB-04
  IL-1B levels: reduced
TNFA
  effectiveness at reducing TNFA levels, compared with the other inhibitors: more effective than BIX01294 and JIB-04
  TNFA levels: reduced
H3K9me2
  H3K9me2 levels: reduced

## CCCc1cc(C)[nH]c(=O)c1CNC(=O)c1cc(-c2ccc(N3CCN(C(C)C)CC3)nc2)cc2c1cnn2C(C)C [UNC1999]
H3K27me3
  H3K27me3 levels: reduced
IL-1B
  IL-1B levels: increased
TNFA
  TNFA levels: increased
